Like-named read-outs stand apart in the source and are kept apart here.
Legend:
[1] = tested on: Target C; test: HiBiT protein abundance assay, Target C (K562 HiBiT knock-in); format: cell-based, human; details: HiBiT knock-in cells, 24 hours
Method: Cells were maintained in IMDM with 10% FBS. Before the assay, cells were diluted with […] growth media (IMDM+1% FBS media) and were seeded in a 384-well plate at a density of 10000 cells/well (for each cell line listed in Table 6). Each compound was prepared as a 10-point 3-old serial dilution in DMSO with the top dose at a final concentration of 10 μM in the well. Unmodified K562 cells were added at the previously specified density with DMSO to serve as an assay baseline and positive control (PC) and DMSO only with the respective modified cell lines was added to the negative control (NC) columns. Final DMSO concentration was kept at or below 0.25%. Treated cell plates were placed in an incubator at 37° C. with 5% CO2 for 24 hours. After 24 hours, 25 μL of Complete HiBit Lytic reagent was added to each well at room temperature (e.g. one plate requiring 10 ml Lytic Buffer, 100 μL LgBiT Protein, 200 μL Lytic Substrate), shaken for 5 minutes at 600 RPM, then left to sit for 10 minutes for signal to stabilize before reading on a Spark Cyto plate reader (Tecan) with a 500 ms measurement time.
To determine compound effects on protein abundance of each target in Table 6, the percent response for each respective cell line was calculated at each compound concentration as follows:
For the normalized response at each concentration, a four-parameter logistical regression was fit to the data and the response was interpolated at the 50% value to determine a concentration for protein abundance at 50% (IC50) the untreated control.

[2] = tested on: K562 cells; test: Cell viability, Cell Titer Glo 2.0 assay, K562; details: 72 hours
[3] = tested on: MYB mRNA; test: Splicing RT-qPCR assay, MYB canonical (CJ) and alternative (AJ) junction mRNA; format: cell-based, human; details: Homo sapiens; for IC50: canonical junction mRNA; for AC50: alternative junction mRNA, read-out: MYB AJ (AC50, increase in AJ mRNA)
In short: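 Treatment of A673 or K562 cultures with compounds (eleven-point titration, highest final 10 uM, ≤0.25% DMSO) ran one day at 37 °C. Afterwards cells were lysed directly in the well, and cDNA synthesis coupled with qPCR measured CJ and AJ isoform levels against a reference transcript.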

[4] = qPCR panel, read-out: MYB CJ (decrease in CJ mRNA levels, IC50)
[5] = RT-qPCR, A673 or K562 cells, 24 hours treatment
[6] = RT-qPCR, A673 or K562 cells, 24 hours treatment, read-out: MYB CJ (IC50, decrease in CJ mRNA)

Structure (SMILES) | IC50 [1] [nM] | IC50 [3, 4] [nM] | IC50 [3, 6] [nM] | Effect on Cell Viability, K562 [2] | AC50 [3, 5] [nM]
CN1CCC[C@H]2CN(c3cnc4nc(-c5cc6cn(C)nc6c(F)c5O)cc(Cl)c4c3)C[C@H]21 [Compound 304] | > 10000 | 100 to 1000 | 100 to 1000 | B (100-1000 nM) | 100 to 1000
Cc1c(O)c(-c2ccc3cc(N4CCC(N(C)C)CC4)cnc3n2)cc2cn(C)nc12 [Compound 138, 5-{6-[4-(dimethylamino)piperidin-1-yl]-1,8-naphthyridin-2-yl}-2,7-dimethylindazol-6-ol] | 1000 to 10000 | 100 to 1000 | 100 to 1000 | A (<100 nM) | 100 to 1000
Cn1cc2cc(-c3cnc4nc(N5CCC(NC(C)(C)C)C5)ccc4c3)c(O)cc2n1 (centres unmarked) [Compound 133, 5-{7-[3-(tert-butylamino)pyrrolidin-1-yl]-1,8-naphthyridin-3-yl}-2-methylindazol-6-ol] | 1000 to 10000 | > 10000 | > 10000 | D (greater than 10 μM) | > 10000
Cc1c(O)c(-c2cc(Cl)c3cc(N(C)[C@H]4CCNC4)cnc3n2)cc2cn(C)nc12 [Compound 294] | 1000 to 10000 | 100 to 1000 | 100 to 1000 | B (100-1000 nM) | 100 to 1000
CN[C@H]1CN(c2cnc3nc(-c4cc5cn(C)nc5c(C)c4O)ccc3c2)C[C@@H]1F (single isomer, unassigned) [Compound 131] | 1000 to 10000 | 100 to 1000 | 100 to 1000 | C (1000-9999 nM) | 100 to 1000
C[C@@H]1CN(c2cnc3nc(-c4cc5cn(C)nc5c(F)c4O)cc(C4CC4)c3c2)C[C@H](C)N1 [Compound 305, 5-{4-cyclopropyl-6-[(3R,5S)-3,5-dimethylpiperazin-1-yl]-1,8-naphthyridin-2-yl}-7-fluoro-2-methylindazol-6-ol] | 1000 to 10000 | 100 to 1000 | 100 to 1000 | C (1000-9999 nM) | 100 to 1000
CNC(=O)c1cc(-c2cc3cn(C)nc3c(C)c2O)nc2ncc(N3CCNCC3)cc12 [Compound 150, 2-(6-hydroxy-2,7-dimethylindazol-5-yl)-N-methyl-6-(piperazin-1-yl)-1,8-naphthyridine-4-carboxamide] | > 10000 | > 10000 | > 10000 | D (greater than 10 μM) | > 10000
Cc1c(O)c(-c2ccc3c(C(F)(F)F)c(N4CCNCC4)cnc3n2)cc2cn(C)nc12 [Compound 302, 2,7-dimethyl-5-[6-(piperazin-1-yl)-5-(trifluoromethyl)-1,8-naphthyridin-2-yl]indazol-6-ol] | 1000 to 10000 | 100 to 1000 | 100 to 1000 | B (100-1000 nM) | 100 to 1000
CN[C@H]1CCN(c2cnc3nc(-c4cc5cn(C)nc5c(C)c4O)ncc3c2)C1 [Compound 120] | 1000 to 10000 | < 100 | < 100 | A (<100 nM) | < 100
Cc1c(O)c(-c2cc(Cl)c3cc(N4CCNC(C)C4)cnc3n2)cc2cn(C)nc12 (centres unmarked) [Compound 147] | 1000 to 10000 | 100 to 1000 | 100 to 1000 | B (100-1000 nM) | 100 to 1000
C[C@H]1CN(c2cnc3nc(-c4cc(F)c5nn(C)cc5c4)cc(Cl)c3c2)C[C@@H](C2CC2)N1 [Compound 288] | 1000 to 10000 | 100 to 1000 | 100 to 1000 | B (100-1000 nM) | 100 to 1000
Cc1c(O)c(-c2ccc3c(Cl)c(N4CCNCC4)cnc3n2)cc2cn(C)nc12 [Compound 278, 5-[5-chloro-6-(piperazin-1-yl)-1,8-naphthyridin-2-yl]-2,7-dimethylindazol-6-ol] | 1000 to 10000 | < 100 | < 100 | A (<100 nM) | < 100
CN(C)C1CCN(c2cnc3nc(-c4cc5cn(C)nc5cc4O)ccc3c2)CC1 [Compound 316] | 1000 to 10000 | 100 to 1000 | 100 to 1000 | B (100-1000 nM) | 100 to 1000
C[C@H]1CN(c2cnc3nc(-c4cc(F)c5nn(C)cc5c4)cc(Cl)c3c2)CCN1 [Compound 296] | 100 to 1000 | < 100 | < 100 | A (<100 nM) | 100 to 1000

The next lines start with results.

IC50 [1] [nM] | IC50 [3, 4] [nM] | IC50 [3, 6] [nM] | Structure (SMILES) | Effect on Cell Viability, K562 [2] | AC50 [3, 5] [nM]
100 to 1000 | 100 to 1000 | 100 to 1000 | Cc1c(O)c(-c2cc(Cl)c3cc(NC4CCNC4)cnc3n2)cc2cn(C)nc12 (centres unmarked) [Compound 146, 5-[4-chloro-6-(359pyrrolidine-3-ylamino)-1,8-naphthyridin-2-yl]-2,7-dimethylindazol-6-ol] | B (100-1000 nM) | < 100
< 100 | < 100 | < 100 | Cn1cc2cc(-c3ccc4cc(N5CC[C@@H](NCC6CC6)C5)cnc4n3)c(O)c(F)c2n1 [Compound 135, 5-{6-[(3R)-3-[(cyclopropylmethyl)amino]330pyrrolidine-1-yl]-1,8-naphthyridin-2-yl}-7-fluoro-2-methylindazol-6-ol] | A (<100 nM) | < 100
100 to 1000 | < 100 | < 100 | CN[C@H]1CCN(c2cnc3nc(-c4cc5cn(C)nc5c(C)c4O)cc(Cl)c3c2)C1.Cl [Compound 287] | A (<100 nM) | < 100
< 100 | < 100 | < 100 | CN[C@H]1CCN(c2cnc3nc(-c4cc(C)c5nc(C)cn5n4)ccc3c2)C1 [Compound 116] | A (<100 nM) | < 100
100 to 1000 | 100 to 1000 | 100 to 1000 | Cc1cn2nc(-c3cc(Cl)c4cc(N5CCC(N(C)C)CC5)cnc4n3)cc(C)c2n1 [Compound 348] | B (100-1000 nM) | 100 to 1000
100 to 1000 | 100 to 1000 | 100 to 1000 | Cc1cn2nc(-c3cc(Cl)c4cc(N5CCC(N6CCC6)CC5)cnc4n3)cc(C)c2n1 [Compound 349] | B (100-1000 nM) | 100 to 1000
100 to 1000 | < 100 | < 100 | Cc1c(O)c(-c2ccc3cc(N4CCC(NCC5CC5)C4)cnc3n2)cc2cn(C)nc12 (stereo in doubt) [Compound 119, 5-{6-[(3R)-3-[(cyclopropylmethyl)amino]pyrrolidin-1-yl]-1,8-naphthyridin-2-yl}-2,7-dimethylindazol-6-ol] | A (<100 nM) | < 100
100 to 1000 | < 100 | < 100 | CNC1CCN(c2cnc3nc(-c4cc5cn(C)nc5c(C)c4O)cc(Cl)c3c2)C1 (centres unmarked) [Compound 142, 5-{4-chloro-6-[3-(methylamino)351pyrrolidine-1-yl]-1,8-naphthyridin-2-yl}-2,7-dimethylindazol-6-ol] | A (<100 nM) | < 100
< 100 | < 100 | < 100 | CCN[C@@H]1CCN(c2cnc3nc(-c4cc5cn(C)nc5c(C)c4O)ccc3c2)C1 [Compound 124] | A (<100 nM) | < 100
100 to 1000 | < 100 | < 100 | C[C@@H]1CN(c2cnc3nc(-c4cc(F)c5nn(C)cc5c4)cc(Cl)c3c2)CCN1 [Compound 295, 4-chloro-2-(7-fluoro-2-methylindazol-5-yl)-6-[(3R)-3-methylpiperazin-1-yl]-1,8-naphthyridine] | B (100-1000 nM) | 100 to 1000
< 100 | < 100 | < 100 | Cc1c(O)c(-c2ccc3cc(N4CCC(NCC5CC5)C4)cnc3n2)cc2cn(C)nc12 (centres unmarked) [Compound 105, 5-(6-{3-[(cyclopropylmethyl)amino]pyrrolidin-1-yl}-1,8-naphthyridin-2-yl)-2,7-dimethylindazol-6-ol] | A (<100 nM) | < 100
